Data reported in US20050112573A1, “Method of detecting toxic substance” (priority 2001, published 2005).

Test system: yeast genes (level of expressed mRNA)
Assay: DNA chip analysis of expressed mRNA of yeast genes after 2 h culture with a toxic chemical substance
Format: cell-based, Saccharomyces cerevisiae S288C
Description: Yeast (Saccharomyces cerevtisiae S288C (α SUC2mal mel gap2 CUP1)) were cultured at 25° C. on YPD medium (yeast extract 1%, polypepton 2%, glucose 2%). One of toxic chemical substances was added to the cell at logarithmic growth phase, and the cell was further cultured for two hours. Cell was cultured without any chemical substance in the same condition, and was used as control. Concentrations of the chemical substances were defined to inhibit the growth of the yeast but not lead to death.
After the completion of cultivation, the culture was centrifuged to collect the cells. To the cells, sodium acetate buffer (50 mM sodium acetate, 10 mM EDTA, 1% SDS) was added, and the mixture was shaken at 65° C. for five minutes, followed by returning to room temperature, and obtaining the supernatant, which procedure was repeated two times. To the supernatant, ½ amount of a solution of phenol/chloroform was added, and the mixture was centrifuged to give a supernatant, which was added with an equal amount of chloroform, and the mixture was centrifuged to give a supernatant. To the supernatant, an equal amount of isopropanol containing 0.3 M sodium acetate was added, and the mixture was allowed to stand at room temperature for 30 minutes, after which the mixture was centrifuged to give a sediment of the whole RNAs. Seventy % ethanol was added to the sediment, and the mixture was again centrifuged to give a sediment, which was then dried and dissolved in water. mRNA was isolated from the whole RNAs as followings. In view of the fact that a poly A chain is attached to the 3′ terminus of mRNA, a polynucleotide having a poly T structure which was immobilized on the surface of latex beads was used to trap the mRNA, and then the mRNA was washed and eluted with spine column (Oligotex-dT30<Super>mRNA Purification Kit, Takara). Reverse transcription of the mRNA was conducted with a reverse transcriptase (Super Script II Reverse Transcriptase; catalogue No. 18064-014, GibcoBRL) using fluorescence-labeled nucleotides to give cDNAs that were introduced with Cy3-dUTP or Cy5-dUTP during the reverse transcription.
The labeled cDNAs were dissolved in TE buffer (10 mM Tris-HCl/1 mM EDTA, pH8.0), and the solution was dropped on the DNA chip containing the whole genes of yeast (DNA Chip Research Inc. Japan) so that the cDNAs were hybridized on the DNA chip at 65° C. for over 12 hours. The fluoresces intensity of the DNA chip was read with a scanner, and the ratio relative to the fluorescence intensity resulting from the absence of chemical substance was estimated as the following, which is shown in Tables 1 to 9: [formula]
In the Tables, “Intensity” indicated in the rightmost column is a value of the level of expressed mRNA of each gene in control cells as divided by the average level of the expressions of the whole genes.

## CCCCCCCCCCCCOS(=O)(=O)[O-].[Na+] [(18), sodium lauryl sulfate]
Gene YML041C
  The level of expressed mRNA in the presence of chemical substance/absence: YML041C: 1.3
Gene YML079W
  The level of expressed mRNA in the presence of chemical substance/absence: YML079W: 1.4
Gene YML110C
  level of expressed mRNA in the presence of chemical substance/in its absence: 1.6
Gene YML118W
  The level of expressed mRNA in the presence of chemical substance/absence: YML118W: 1.5
Gene YMR068W
  The level of expressed mRNA in the presence of chemical substance/absence: YMR068W: 1.1
Gene YMR071C
  The level of expressed mRNA in the presence of chemical substance/absence: YMR071C: 1.9
Gene YMR105C
  level of expressed mRNA in the presence of chemical substance/in its absence: 2.6
Gene YMR114C
  The level of expressed mRNA in the presence of chemical substance/absence: YMR114C: 1.3
Gene YMR115W
  The level of expressed mRNA in the presence of chemical substance/absence: YMR115W: 1.2
Gene YMR160W
  The level of expressed mRNA in the presence of chemical substance/absence: YMR160W: 1.3
Gene YMR189W
  level of expressed mRNA in the presence of chemical substance/in its absence: 0.8
Gene YMR258C
  The level of expressed mRNA in the presence of chemical substance/absence: YMR258C: 1.3
Gene YMR271C
  level of expressed mRNA in the presence of chemical substance/in its absence: 2.2
Gene YMR272C
  level of expressed mRNA in the presence of chemical substance/in its absence: 1.4
Gene YMR296C
  level of expressed mRNA in the presence of chemical substance/in its absence: 0.7
Gene YNL012W
  level of expressed mRNA in the presence of chemical substance/in its absence: 1.5
Gene YNL026W
  The level of expressed mRNA in the presence of chemical substance/absence: YNL026W: 1.4
Gene YNL037C
  level of expressed mRNA in the presence of chemical substance/in its absence: 1.3
Gene YNL045W
  level of expressed mRNA in the presence of chemical substance/in its absence: 1.1
Gene YNL058C
  The level of expressed mRNA in the presence of chemical substance/absence: YNL058C: 1.0
Gene YNL063W
  The level of expressed mRNA in the presence of chemical substance/absence: YNL063W: 1.0
Gene YNL104C
  level of expressed mRNA in the presence of chemical substance/in its absence: 0.9
Gene YNL106C
  level of expressed mRNA in the presence of chemical substance/in its absence: 0.9
Gene YNL130C
  level of expressed mRNA in the presence of chemical substance/in its absence: 1.2
Gene YNL169C
  level of expressed mRNA in the presence of chemical substance/in its absence: 1.3
Gene YNL176C
  The level of expressed mRNA in the presence of chemical substance/absence: YNL176C: 0.8
Gene YNL181W
  The level of expressed mRNA in the presence of chemical substance/absence: YNL181W: 1.3
Gene YNL191W
  The level of expressed mRNA in the presence of chemical substance/absence: YNL191W: 0.6
Gene YNL194C
  The level of expressed mRNA in the presence of chemical substance/absence: YNL194C: 2.4
Gene YNL200C
  The level of expressed mRNA in the presence of chemical substance/absence: YNL200C: 0.9
Gene YNL212W
  The level of expressed mRNA in the presence of chemical substance/absence: YNL212W: 1.2
Gene YNL231C
  level of expressed mRNA in the presence of chemical substance/in its absence: 4.0
Gene YNL253W
  The level of expressed mRNA in the presence of chemical substance/absence: YNL253W: 1.2
Gene YNL265C
  The level of expressed mRNA in the presence of chemical substance/absence: YNL265C: 1.8
Gene YNL276C
  The level of expressed mRNA in the presence of chemical substance/absence: YNL276C: 0.8
Gene YNL322C
  level of expressed mRNA in the presence of chemical substance/in its absence: 1.0
Gene YNR002C
  level of expressed mRNA in the presence of chemical substance/in its absence: 2.1
Gene YNR019W
  level of expressed mRNA in the presence of chemical substance/in its absence: 2.0
Gene YNR033W
  level of expressed mRNA in the presence of chemical substance/in its absence: 1.1
Gene YNR051C
  The level of expressed mRNA in the presence of chemical substance/absence: YNR051C: 0.8
Gene YNR059W
  level of expressed mRNA in the presence of chemical substance/in its absence: 2.2
Gene YOL026C
  The level of expressed mRNA in the presence of chemical substance/absence: YOL026C: 1.4
Gene YOL030W
  The level of expressed mRNA in the presence of chemical substance/absence: YOL030W: 1.0
Gene YOL058W
  level of expressed mRNA in the presence of chemical substance/in its absence: 0.8
Gene YOL126C
  level of expressed mRNA in the presence of chemical substance/in its absence: 2.4
Gene YOL143C
  level of expressed mRNA in the presence of chemical substance/in its absence: 1.4
Gene YOL153C
  level of expressed mRNA in the presence of chemical substance/in its absence: 1.7
Gene YOL157C
  level of expressed mRNA in the presence of chemical substance/in its absence: 1.3
Gene YOR022C
  The level of expressed mRNA in the presence of chemical substance/absence: YOR022C: 1.1
Gene YOR087W
  The level of expressed mRNA in the presence of chemical substance/absence: YOR087W: 1.1
Gene YOR088W
  The level of expressed mRNA in the presence of chemical substance/absence: YOR088W: 0.7
Gene YOR099W
  level of expressed mRNA in the presence of chemical substance/in its absence: 2.3
Gene YOR130C
  level of expressed mRNA in the presence of chemical substance/in its absence: 1.1
Gene YOR136W
  level of expressed mRNA in the presence of chemical substance/in its absence: 1.3
Gene YOR138C
  The level of expressed mRNA in the presence of chemical substance/absence: YOR138C: 1.1
Gene YOR155C
  The level of expressed mRNA in the presence of chemical substance/absence: YOR155C: 0.9
Gene YOR253W
  The level of expressed mRNA in the presence of chemical substance/absence: YOR253W: 0.9
